According to patent publication EP1285918A1, “C7 Ester substituted taxanes as antitumor agents” (Florida State University Research Foundation, Inc., priority 2001, dated 2003):
Where two headings read alike, the source gives them in different places.

Experiments:
[1] = tested on: A2780 Human Ovarian Carcinoma Xenografts; conditions: for MDS (n) / Complete Response / Partial Response / Stable Disease / Survivors / Toxic Deaths / Mean Score: i.v. qd x 1 (mg/kg: Taxol 24, 1351 75.3, 1401 107.6, 1418 107.6, Taxotere 70); for MDS (n): 2.0 g cut-off; for MDS (n) / Complete Response / Partial Response / Stable Disease / Survivors / Toxic Deaths: Day 60; for Mean Score: tumor score 1 to 10, group mean; for survival extension compared to Group 1 controls: i.v. qd x 1 (mg/kg: Taxol 24, 1418 107.6, Taxotere 70)
Description: Other antitumor compounds were similarly formulated. […] The dosing volume was 0.3 ml per 20 g mouse.
Female NCr-nude mice (implanted subcutaneously with 1 mm^3 A2780 ovarian carcinoma fragments in the flank) were sorted into treatment groups of five mice each, except for the Taxotere treatment group including six mice. […] Dosing was initiated on Day 1. The antitumor compounds were given i.v. at an estimated maximum tolerated dose (MTD) appropriate for each agent on a qd x 1 schedule (single administration of compound). […] Taxotere was given i.v. on a qd x 1 schedule at a dose of 70 mg/kg. The vehicle was administered i.v. to control mice in Group 1 on the qd x 1 schedule. Treatment groups are detailed in Table 7. The study was terminated on Day 60.
(§1) The results are summarized in Table 8 and include mean days of survival (MDS), number of toxic deaths, number of survivors, number of complete or partial responses, and number with stable disease. The mean days of survival is the number of days after which a neoplasm reached a size of 2.0 g and the animal was euthanized. A complete response is obtained if the tumor is not palpable at the end of the study. A partial response is obtained if the tumor shrinks to a size smaller than its size on Day 1 of the study.

[2] = tested on: HCT116 Human Colon Carcinoma Xenograft; conditions: HCT116, i.v. Day 1 (Taxol 36 mg/kg split dose, 1393 73 mg/kg single dose)
[3] = tested on: NCI-H1299 (H1299) carcinoma; conditions: i.v. split dose qd x 1 at MTD (Taxol 36 mg/kg, 1393 72.1 mg/kg), 6 mice/group, Day 60
Description: Two antitumor compounds were formulated for an i.v. dosing regime prepared in the following vehicle: 10% ethanol, 10% Cremophor and 80% isotonic saline. […] Other compounds were formulated similarly.
The MTDs for the antitumor compounds were calculated from earlier single dose data for mice receiving i.v. administration of these compounds. […] Vehicle control animals were dosed twice intravenously with half the total volume being given separated by one hour. The study was terminated at Day 60.
as §1, with “1” for “8”, “1.5” for “2.0”
A tumor scoring system was designed to provide a more quantitative ranking of efficacy (therapeutic potential) among the antitumor agents evaluated against the different human solid tumor xenografts. Each mouse in a study was given a score of from 1 to 10 at the end of the study. The scores can be summarized as follows:
The individual score for each mouse was averaged into a mean score for each treatment group. […]
The treatment protocol for the H1299 test was identical to the SK-MES test protocol. […]

[4] = tested on: HCT116 human colon carcinoma xenograft; conditions: for long term survivors at the end of the experiment: HCT116, i.v. and oral groups together (out of thirty), Day 60; for Survivors / Partial Responses / Stable Disease / Toxic Deaths / Complete Responses: 10 mice/group, study end Day 60
Description: Six groups consisting of ten mice in each group were made up of female Nu/Nu mice (8-9 weeks of age; implanted with 1 mm^3 HCT116 human […] carcinoma fragments in the flank). Another six groups consisting of ten mice in each group were made up of male Nu/Nu mice (6-7 weeks of age; implanted with 1 mm^3 HCT116 human […] carcinoma fragments in the flank). […] The study was terminated on Day 60.
The results are summarized in Table 19 for the female mice and Table 20 for the male mice. Included are mean days of survival (MDS), number of toxic deaths, number of survivors, number of complete or partial responses, and number with stable disease. The mean days of survival is the number of days after which an […] neoplasm reached a size of 1.5 g and the animal was euthanized. A complete response is obtained if the tumor is not palpable at the end of the study. A partial response is obtained if the tumor shrinks to a size smaller than its size on Day 1 of the study. […]

[5] = tested on: SKMES Human Lung Carcinoma Xenograft
Description: Antitumor compounds were formulated for oral administration over a wide dose range in a study to investigate the efficacy of this compound against the SKMES human lung cancer xenograft. The antitumor compounds were prepared in the following vehicle: 5% ethanol, 5% Cremophor and 90% isotonic saline.
Female Nu/Nu mice (6-8 weeks of age; implanted with 1 mm^3 SKMES lung carcinoma fragments in the flank) were sorted into treatment groups of six mice each. SKMES size ranges and group mean SKMES size ranges were 126-448 mg and 238-241 mg, respectively. […] Treatments were administered as a single oral bolus on Day 1, and the study was terminated on Day 60.
The mean days of survival is the number of days after which a SKMES neoplasm reached a size of 2.0 g and the animal was euthanized. A complete response is obtained if the tumor is not palpable at the end of the study. A partial response is obtained if the tumor shrinks to a size smaller than its size on Day 1 of the study. […]

[6] = female mice, 104 mg/kg i.v. in 5% ethanol and 95% Liposyn II (Group 4)
[7] = female mice, 104 mg/kg i.v. in 5% ethanol and 95% Liposyn III (Group 5)
[8] = female mice, 104 mg/kg oral in 5% ethanol, 5% Cremophor and 90% isotonic saline (Group 6)
[9] = male mice, 73 mg/kg i.v. in 5% ethanol and 95% Liposyn II (Group 4)
[10] = male mice, 73 mg/kg i.v. in 5% ethanol and 95% Liposyn III (Group 5)
[11] = male mice, 73 mg/kg oral in 5% ethanol, 5% Cremophor and 90% isotonic saline (Group 6)
[12] = 5.2 mg/kg single oral bolus Day 1, 6 mice/group, study end Day 60
[13] = 10.4 mg/kg single oral bolus Day 1, 6 mice/group, study end Day 60
[14] = 20.8 mg/kg single oral bolus Day 1, 6 mice/group, study end Day 60
[15] = 42 mg/kg single oral bolus Day 1, 6 mice/group, study end Day 60
[16] = 73 mg/kg single oral bolus Day 1, 6 mice/group, study end Day 60
[17] = 104 mg/kg single oral bolus Day 1, 6 mice/group, study end Day 60
[18] = SKMES, 1418 single oral bolus 90 mg/kg (Group 4), 6 mice, Day 60

CCC(=O)O[C@H]1C[C@H]2OC[C@@]2(OC(C)=O)[C@H]2[C@H](OC(=O)c3ccccc3)[C@]3(O)C[C@H](OC(=O)[C@H](O)[C@H](C=C(C)C)NC(=O)OC(C)(C)C)C(C)=C([C@@H](O)C(=O)[C@]12C)C3(C)C [Compound 1351]
total response rate ([1]; 1351 75.3 mg/kg i.v. qd x 1): at least 20%
MDS (n) [1]: 23.0 ± 1.7 (4) days
Complete Response [1]: 0
Partial Response [1]: 1
Stable Disease [1]: 0
Survivors [1]: 1
Toxic Deaths [1]: 0
Mean Score [1]: 3.6 ± 1.1

CCC(=O)OC1CC2OCC2(OC(C)=O)C2C(OC(=O)c3ccccc3)C3(O)CC(OC(=O)C(O)C(NC(=O)OC(C)(C)C)c4ccco4)C(C)=C(C(O)C(=O)C12C)C3(C)C (stereo not shown) [Compound 1393, 3'-Desphenyl-3'-(2-furyl)-7-propionyl taxotere]
Survivors ([2]; 5 mice/group, Day 60): 5
Survivors [3]: 4
long term survivors at the end of the experiment ([4]; female mice, 1393 104 mg/kg): twenty-eight
long term survivors at the end of the experiment ([4]; male mice, 1393 73 mg/kg): Twenty-nine
Survivors [4, 6]: 10
Survivors [4, 7]: 10
Survivors [4, 8]: 9
Survivors [4, 9]: 10
Survivors [4, 10]: 8
Survivors [4, 11]: 10
Survivors [5, 12]: 1
Survivors [5, 13]: 1
Survivors [5, 14]: 0
Survivors [5, 15]: 2
Survivors [5, 16]: 5
Survivors [5, 17]: 6

CCC(=O)O[C@H]1C[C@H]2OC[C@@]2(OC(C)=O)[C@H]2[C@H](OC(=O)c3ccccc3)[C@]3(O)C[C@H](OC(=O)[C@H](O)[C@@H](NC(=O)OC(C)(C)C)c4ccco4)C(C)=C([C@@H](O)C(=O)[C@]12C)C3(C)C [Compound 1393, 3'-Desphenyl-3'-(2-furyl)-7-propionyl taxotere]
Partial Response ([2]; 5 mice/group, Day 60): 4
Stable Disease ([2]; 5 mice/group, Day 60): 0
Mean Score ([2]; tumor score 1 to 10, group mean): 9.2 ± 0.2
Toxic Deaths [3]: 2
Partial Responses [4, 6]: 3
Stable Disease [4, 6]: 2
Toxic Deaths [4, 6]: 0
Complete Responses [4, 7]: 5
Partial Responses [4, 7]: 3
Stable Disease [4, 7]: 2
Toxic Deaths [4, 7]: 0
Complete Responses [4, 8]: 4
Partial Responses [4, 8]: 3
Stable Disease [4, 8]: 2
Toxic Deaths [4, 8]: 0
Complete Responses [4, 9]: 7
Partial Responses [4, 9]: 1
Stable Disease [4, 9]: 2
Toxic Deaths [4, 9]: 0
Complete Responses [4, 10]: 6
Partial Responses [4, 10]: 0
Stable Disease [4, 10]: 2
Toxic Deaths ([4]; male mice, 73 mg/kg i.v. in 5% ethanol and 95% Liposyn III (Group 5), footnote: one death due to an unknown reason): 2^a
Complete Responses [4, 11]: 6
Partial Responses [4, 11]: 3
Stable Disease [4, 11]: 1
Toxic Deaths [4, 11]: 0
Toxic Deaths [5, 12]: 0
Toxic Deaths [5, 13]: 0
Toxic Deaths [5, 14]: 0
Toxic Deaths [5, 15]: 0
MDS (n) ([5]; 42 mg/kg single oral bolus Day 1, 6 mice/group, study end Day 60, days until tumor reached 2.0 g): 23.2 ± 4.8 (4) days
% Total Response [5, 16]: 83.3%
Toxic Deaths [5, 16]: 0
% Total Response [5, 17]: 83.3%
Toxic Deaths [5, 17]: 0
MDS ([5]; SKMES, 1393 single oral bolus 42 mg/kg (Group 7), 2.0 g cut-off): 23.2 days

CCC(=O)O[C@H]1C[C@H]2OC[C@@]2(OC(C)=O)[C@H]2[C@H](OC(=O)c3ccccc3)[C@]3(O)C[C@H](OC(=O)[C@H](O)[C@@H](NC(=O)OC(C)(C)C)c4ccoc4)C(C)=C([C@@H](O)C(=O)[C@]12C)C3(C)C [Compound 1401]
MDS (n) [1]: 32.1 ± 3.9 (4) days
Complete Response [1]: 0
Partial Response [1]: 0
Stable Disease [1]: 1
Survivors [1]: 1
Toxic Deaths [1]: 0
Mean Score [1]: 3.4 ± 0.4

CCC(=O)O[C@H]1C[C@H]2OC[C@@]2(OC(C)=O)[C@H]2[C@H](OC(=O)c3ccccc3)[C@]3(O)C[C@H](OC(=O)[C@H](O)[C@@H](NC(=O)OC(C)(C)C)c4cccs4)C(C)=C([C@@H](O)C(=O)[C@]12C)C3(C)C [Compound 1418]
MDS (n) [1]: 32.0 ± 2.3 (5) days
Complete Response [1]: 0
Partial Response [1]: 0
Stable Disease [1]: 0
Survivors [1]: 0
Toxic Deaths [1]: 0
Mean Score [1]: 3 ± 0
survival extension compared to Group 1 controls [1]: approximately 300%
Toxic Deaths ([5]; 90 mg/kg single oral bolus Day 1, 6 mice/group, study end Day 60): 0
total response rate ([5]; SKMES, 1418 single oral bolus 90 mg/kg (Group 4)): 100%
Complete Responses [5, 18]: four
Partial Responses [5, 18]: two
% Total Response ([5]; po, 90 mg/kg): 100%
Complete Responses ([5]; po, 90 mg/kg): 4
Partial Responses ([5]; po, 90 mg/kg): 2

CC(=O)O[C@@]12CO[C@@H]1C[C@H](O)[C@@]1(C)C(=O)[C@H](O)C3=C(C)[C@@H](OC(=O)[C@H](O)[C@@H](NC(=O)OC(C)(C)C)c4ccccc4)C[C@@](O)([C@@H](OC(=O)c4ccccc4)[C@H]21)C3(C)C [docetaxel, reference compound]
MDS (n) [1]: 27.4 ± 3.5 (5) days
Complete Response [1]: 0
Partial Response [1]: 0
Stable Disease [1]: 0
Survivors [1]: 0
Toxic Deaths [1]: 0
Mean Score [1]: 2.5 ± 0.3
survival extension compared to Group 1 controls [1]: 134%
